Data from publication PMC11589570, “Critical assessment of LC3/GABARAP ligands used for degrader development and ligandability of LC3/GABARAP binding pockets” (Nature Communications, 2024).
Several values for one entry are separate records, joined by “and”; a condition that tells them apart may be missing. Equal entries are not always repeated. Where two headings read alike, the source gives them in different places.

Assays:
U2OS cells = experiment: Cell growth assay (IncuCyte confluence over 72 h); type: cell-based; set-up: key to U2OS cell growth: % of well area covered by cells (confluence)
Procedure, shortened: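 U2OS cells were grown in DMEM with 10% FBS for 24 h before treatment. Confluence was then tracked by IncuCyte phase imaging over 72 h and expressed as % of well area covered by cells. Each point is the average of three wells.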

GABARAPL2 = GABARAPL2 (Homo sapiens, UniProt P60520); settings: GABARAPL2:ligand molar ratio 1:2
Chain of GABARAPL2 (P60520 whole entry): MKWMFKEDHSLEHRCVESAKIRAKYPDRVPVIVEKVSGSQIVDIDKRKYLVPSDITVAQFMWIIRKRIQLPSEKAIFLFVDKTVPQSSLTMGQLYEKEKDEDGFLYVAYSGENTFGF

CSP (GABARAPL2; residue A19): 0.010 ppm
CSP (GABARAPL2; residue A23): 0.008 ppm
CSP (GABARAPL2; residue A58): 0.00237 ppm
CSP (GABARAPL2; residue A108): 0.00221 ppm
CSP (GABARAPL2; residue C15): 0.005 ppm
CSP (GABARAPL2; residue D45): 0.004 ppm
CSP (GABARAPL2; residue D54): 0.006 ppm
CSP (GABARAPL2; residue D81): 0.00283 ppm
CSP (GABARAPL2; residue D100): 0.00367 ppm
CSP (GABARAPL2; residue D102): 0.009 ppm
CSP (GABARAPL2; residue E12): 0.00212 ppm
CSP (GABARAPL2; residue E17): 0.006 ppm
CSP (GABARAPL2; residue E34): 0.010 ppm
CSP (GABARAPL2; residue E73): 0.00212 ppm
CSP (GABARAPL2; residue E96): 0.004 ppm
CSP (GABARAPL2; residue E112): 0.002 ppm
CSP (GABARAPL2; residue F5, estimated): 0.005 ppm
CSP (GABARAPL2; residue F60): 0.005 ppm
CSP (GABARAPL2; residue F77): 0.00281 ppm
CSP (GABARAPL2; residue F104): 0.016 ppm
CSP (GABARAPL2; residue F115): 0.009 ppm
CSP (GABARAPL2; residue G38): 0.012 ppm
CSP (GABARAPL2; residue G103): 0.005 ppm
CSP (GABARAPL2; residue G111): 0.008 ppm
CSP (GABARAPL2; residue H9): 0.016 ppm
CSP (GABARAPL2; residue I21): 0.005 ppm
CSP (GABARAPL2; residue I32): 0.005 ppm
CSP (GABARAPL2; residue I41): 0.007 ppm
CSP (GABARAPL2; residue I44): 0.002 ppm
CSP (GABARAPL2; residue I55): 0.00171 ppm
CSP (GABARAPL2; residue I63): 0.003 ppm
CSP (GABARAPL2; residue I64): 0.006 ppm
CSP (GABARAPL2; residue K2): 0.005 ppm
CSP (GABARAPL2; residue K20): 0.009 ppm
CSP (GABARAPL2; residue K24): 0.005 ppm
CSP (GABARAPL2; residue K35): 0.007 ppm
CSP (GABARAPL2; residue K46, estimated): 0.005 ppm
CSP (GABARAPL2; residue K48): 0.007 ppm
CSP (GABARAPL2; residue K66): 0.00316 ppm
CSP (GABARAPL2; residue K74): 0.00148 ppm
CSP (GABARAPL2; residue K82, estimated): 0.005 ppm
CSP (GABARAPL2; residue K99): 0.00444 ppm
CSP (GABARAPL2; residue L11): 0.00212 ppm
CSP (GABARAPL2; residue L50): 0.031 ppm
CSP (GABARAPL2; residue L70): 0.00283 ppm
CSP (GABARAPL2; residue L78): 0.0017 ppm
CSP (GABARAPL2; residue L94): 0.007 ppm
CSP (GABARAPL2; residue L105): 0.00636 ppm
CSP (GABARAPL2; residue M1): 0.014 ppm
CSP (GABARAPL2; residue M4, estimated): 0.005 ppm
CSP (GABARAPL2; residue M61): 0.00474 ppm
CSP (GABARAPL2; residue M91): 0.005 ppm
CSP (GABARAPL2; residue P26, estimated): 0.005 ppm
CSP (GABARAPL2; residue P30, estimated): 0.010 ppm
CSP (GABARAPL2; residue P52, estimated): 0.005 ppm
CSP (GABARAPL2; residue P71, estimated): 0.005 ppm
CSP (GABARAPL2; residue P85, estimated): 0.005 ppm
CSP (GABARAPL2; residue Q40): 0.0017 ppm
CSP (GABARAPL2; residue Q59): 0.002 ppm
CSP (GABARAPL2; residue R14): 0.0095 ppm
CSP (GABARAPL2; residue R28): 0.00851 ppm
CSP (GABARAPL2; residue R47, estimated): 0.005 ppm
CSP (GABARAPL2; residue R65): 0.0019 ppm
CSP (GABARAPL2; residue R67): 0.004 ppm
CSP (GABARAPL2; residue S10): 0.013 ppm
CSP (GABARAPL2; residue S18): 0.002 ppm
CSP (GABARAPL2; residue S37): 0.0065 ppm
CSP (GABARAPL2; residue S39): 0.00356 ppm
CSP (GABARAPL2; residue S53): 0.005 ppm
CSP (GABARAPL2; residue S88): 0.00122 ppm
CSP (GABARAPL2; residue S110): 0.00122 ppm
CSP (GABARAPL2; residue T83): 0.00251 ppm
CSP (GABARAPL2; residue T114): 0.00122 ppm
CSP (GABARAPL2; residue V29): 0.0057 ppm
CSP (GABARAPL2; residue V31): 0.025 ppm
CSP (GABARAPL2; residue V36): 0.00316 ppm
CSP (GABARAPL2; residue V42): 0.006 ppm
CSP (GABARAPL2; residue V51): 0.009 ppm
CSP (GABARAPL2; residue V80): 0.008 ppm
CSP (GABARAPL2; residue V84): 0.00228 ppm
CSP (GABARAPL2; residue V107): 0.006 ppm
CSP (GABARAPL2; residue W3): 0.006 ppm
CSP (GABARAPL2; residue Y49): 0.033 ppm
CSP (GABARAPL2; residue Y95): 0.0022 ppm
CSP (GABARAPL2; residue Y106): 0.007 ppm
CSP (GABARAPL2; residue Y109): 0.007 ppm
SMILES: O=c1cc(-c2ccccc2)c2c(O)cc(O)cc2o1 [compound 2]
U2OS cell growth (U2OS cells; 100 nM, time 0 h, listed as AN2): 19.1869 and 23.0588 and 16.4621
U2OS cell growth (U2OS cells; 100 nM, time 2 h, listed as AN2): 26.3735 and 32.6169 and 19.3997
U2OS cell growth (U2OS cells; 100 nM, time 4 h, listed as AN2): 24.7952 and 30.3994 and 22.748
U2OS cell growth (U2OS cells; 100 nM, time 6 h, listed as AN2): 35.0609 and 34.7921 and 28.0047
U2OS cell growth (U2OS cells; 500 nM, time 0 h, listed as AN2): 31.1146 and 31.1409 and 25.529
U2OS cell growth (U2OS cells; 500 nM, time 2 h, listed as AN2): 37.2793 and 37.1141 and 29.374
U2OS cell growth (U2OS cells; 500 nM, time 4 h, listed as AN2): 35.0603 and 34.3575 and 27.3746
U2OS cell growth (U2OS cells; 500 nM, time 6 h, listed as AN2): 41.7549 and 43.2861 and 37.4758
U2OS cell growth (U2OS cells; 500 nM, time 10 h): 32.7403
U2OS cell growth (U2OS cells; 1 uM, time 0 h, listed as AN2): 36.01 and 37.7334 and 44.0066
U2OS cell growth (U2OS cells; 1 uM, time 2 h, listed as AN2): 41.2565 and 41.9214 and 49.8222
U2OS cell growth (U2OS cells; 1 uM, time 4 h, listed as AN2): 42.1175 and 41.7454 and 46.9501
U2OS cell growth (U2OS cells; 1 uM, time 6 h, listed as AN2): 43.4595 and 43.9324 and 52.0735
U2OS cell growth (U2OS cells; 1 uM, time 8 h, listed as AN2): 40.5517 and 44.5898 and 47.4794
U2OS cell growth (U2OS cells; 1 uM, time 10 h, listed as AN2): 50.4894 and 50.7087 and 57.5735
U2OS cell growth (U2OS cells; 1 uM, time 12 h, listed as AN2): 52.169
U2OS cell growth (U2OS cells; 3 uM, time 0 h, listed as AN2): 52.9397 and 44.5639 and 41.1773
U2OS cell growth (U2OS cells; 3 uM, time 2 h, listed as AN2): 56.1844 and 48.7409 and 42.4981
U2OS cell growth (U2OS cells; 3 uM, time 4 h, listed as AN2): 62.7365 and 55.2773 and 40.1715
U2OS cell growth (U2OS cells; 3 uM, time 6 h, listed as AN2): 59.0724 and 50.9181 and 40.9833
U2OS cell growth (U2OS cells; 3 uM, time 8 h, listed as AN2): 54.8708 and 50.2365 and 43.1088
U2OS cell growth (U2OS cells; 3 uM, time 10 h, listed as AN2): 58.4454 and 57.5785 and 49.1427
U2OS cell growth (U2OS cells; 3 uM, time 12 h, listed as AN2): 58.133 and 56.9126
U2OS cell growth (U2OS cells; 5 uM, time 0 h, listed as AN2): 43.5311 and 39.437 and 42.1256
U2OS cell growth (U2OS cells; 5 uM, time 2 h, listed as AN2): 49.0024 and 44.0014 and 45.1119
U2OS cell growth (U2OS cells; 5 uM, time 4 h, listed as AN2): 52.676 and 42.1033 and 45.9331
U2OS cell growth (U2OS cells; 5 uM, time 6 h, listed as AN2): 55.9501 and 52.2867 and 48.2418
U2OS cell growth (U2OS cells; 5 uM, time 8 h, listed as AN2): 48.351 and 54.4267 and 50.4706
U2OS cell growth (U2OS cells; 5 uM, time 10 h, listed as AN2): 60.2478 and 59.3897 and 54.3527
U2OS cell growth (U2OS cells; 10 uM, time 0 h, listed as AN2): 38.4245 and 29.6214 and 35.113
U2OS cell growth (U2OS cells; 10 uM, time 2 h, listed as AN2): 42.0042 and 29.7485 and 38.264
U2OS cell growth (U2OS cells; 10 uM, time 4 h, listed as AN2): 45.9814 and 34.6443 and 44.264
U2OS cell growth (U2OS cells; 10 uM, time 6 h, listed as AN2): 49.3993 and 33.9992 and 45.6677
U2OS cell growth (U2OS cells; 10 uM, time 8 h, listed as AN2): 46.5429 and 32.9506 and 41.2472
U2OS cell growth (U2OS cells; 10 uM, time 10 h, listed as AN2): 49.5589 and 37.0749 and 46.636
